According to paper PMC6133161, “Thiazoles with cyclopropyl fragment as antifungal, anticonvulsant, and anti-Toxoplasma gondii agents: synthesis, toxicity evaluation, and molecular docking study” (Medicinal Chemistry Research, 2018):
Converted amounts (≈) assume the structure as drawn. Like-named read-outs stand apart in the source and are kept apart here.

Columns and labels:
[1] = tested on: Toxoplasma gondii RH strain; experiment: [3H]-uracil incorporation assay in VERO host cells; conditions: Toxoplasma gondii, Vero
[2] = tested on: C. inconspicua; experiment: Broth microdilution MIC/MFC, clinical isolate; format: cell-based; conditions: C. inconspicua clinical strain
Excerpt: (§1) In the study of antifungal activity of the compounds 3a–3j, 15 clinical strains of different species of yeasts from Candida species, namely C. albicans, C. dubliniensis C. famata, C. inconspicua, C. krusei, C. tropicalis, C. glabrata, C. lambica, C. kefyr, C. lusitaniae, C. parapsilosis, C. guilliermondii, C. lusitaniae, C. pulcherrima and C. sake were also used. These fungi were isolated by the author (from Department of Pharmaceutical Microbiology of Medical University in Lublin, Poland) from different clinical materials, e.g., from upper respiratory tract of hospitalized patients including cancer patients (i.e., with non-small cell lung cancer or hematological malignancies). Some patients were after pre-operative or post-operative chemotherapy (treated with etoposide or cis-platin given in doses according to the standard procedures), patients with chronic hepatitis C (undergoing peginterferon and ribavirin therapy or without antiviral therapy), patients with diabetes, elderly people, aged of 65 years old or older, staying in close population, such as a care centre and people staying outside the home care. The Ethical Committee of the Medical University of Lublin approved the study protocol (No. KE-0254/75/2011). The isolates were identified by standard diagnostic methods—biochemical microtest, e.g., API 20C AUX, ID 32C, API Candida (bioMérieux) on the basis of assimilation of various substrates. All the used microbial cultures were first subcultured on nutrient agar or Sabouraud agar for bacteria and fungi, respectively. The RPMI 1640 with MOPS (for fungi) were inoculated with the suspensions of fungal species. Microbial suspensions were prepared in sterile saline (0.85% NaCl) with an optical density of 0.5 McFarland standard scale (Wiegand et al. [2008]). Samples containing examined compounds were dissolved in dimethyl sulfoxide (DMSO). Furthermore, fungal suspensions were put onto Petri dishes with solid media containing 2 mg/ml of the tested compounds followed incubation under appropriate conditions. The inhibition of microbial growth was judged by comparison with a control culture prepared without any sample tested. Nystatin (Sigma) was used as a reference antifungal compound. Subsequently MIC minimal inhibitory concentration (MIC) of the compounds was examined by the microdilution broth method, using their two-fold dilutions in RPMI 1640 broth with MOPS prepared in 96-well polystyrene plates. Final concentrations of the compounds ranged from 1000 to 0.0038 µg/ml. Microbial suspensions were prepared in sterile saline with an optical density of 0.5 McFarland standard. Next fungal suspension was added per each well containing broth and various concentrations of the examined compounds. After incubation, the MIC was assessed spectrophotometric as the lowest concentration of the samples showing complete fungal growth inhibition. Appropriate DMSO, growth and sterile controls were carried out. The medium with no tested substances was used as a control (Wiegand et al. [2008]). The minimal fungicidal concentration (MFC) are defined as the lowest concentration of the compounds that is required to kill a particular fungal species. MFC was determined by removing the culture using for MIC determinations from each well and spotting onto appropriate agar medium. The plates were incubated. The lowest compounds concentration with no visible growth observed was assessed as a fungicidal concentration. All the experiments were repeated three times and representative data are presented.
(§2) The MFC/MIC ratios were calculated in order to determine fungicidal (MFC/MIC ≤ 4) or fungistatic (MFC/MIC > 4) effect of the tested compounds (O’Donnell et al. [2010]).

[3] = tested on: C. tropicalis; experiment: Broth microdilution MIC/MFC, clinical isolate; format: cell-based; conditions: C. tropicalis clinical strain
Excerpt: as §1, §2

[4] = tested on: C. dubliniensis; experiment: Broth microdilution MIC/MFC, clinical isolate; format: cell-based; conditions: C. dubliniensis clinical strain
Excerpt: as §1, §2

[5] = tested on: C. parapsilosis; experiment: Broth microdilution MIC/MFC, clinical isolate; format: cell-based; conditions: C. parapsilosis clinical strain
Excerpt: as §1, §2

[6] = tested on: maximal electroshock seizures; experiment: Maximal electroshock seizure (MES) test; format: in vivo, mouse; conditions: mice; for responders at 100 mg/kg: 100 mg/kg ip, read-out: X/Y number of mice protected (X) per number of mice tested (Y) (converted)
Procedure: For in vivo tests that assessed anticonvulsant properties of the test compounds 3a–3j adult male Albino Swiss (CD-1) mice weighing between 18 and 22 g were used. The animals were housed in groups of ten mice per cage at room temperature of 22 ± 2 °C, under light/dark (12:12) cycle. The animals had free access to food and tap water before the experiments. The ambient temperature of the experimental room and humidity (50 ± 10%) were kept consistent throughout all the tests. For behavioral experiments the animals were selected randomly. Each experimental group consisted of 4–8 animals/dose. The experiments were performed between 9 AM and 2 PM. Immediately after the in vivo assay the animals were euthanized by cervical dislocation. All procedures were approved by the Local Ethics Committee of the Jagiellonian University in Krakow (34/2018, 1.02.2018)) and the treatment of animals was in full accordance with ethical standards laid down in respective Polish and EU regulations (Directive No. 86/609/EEC). For in vivo tests the compounds 3a–3j were prepared in 1% Tween 80 solution (POCH, Poland) and they were administered by the intraperitoneal route. Control mice received 1% Tween 80. Pentylenetetrazole (PTZ), pilocarpine hydrochloride and scopolamine butylbromide were provided by Sigma Aldrich (Poland). For the tests they were prepared in 0.9% saline (Polfa Kutno, Poland). PTZ and pilocarpine were administered 60 min after the test compound or vehicle. To assess anticonvulsant properties of the test compounds anticonvulsant screening was conducted. Four assays were used: PTZ, maximal electroshock seizure (MES), 6-Hz and pilocarpine tests. In these assays the dose of 100 mg/kg was chosen as a starting dose. If it turned out to be effective, a lower dose (30 mg/kg) was also tested. MES test was performed according to a method previously described (Sałat et al. [2005]). In this test vehicle-treated mice and drug-treated mice received a stimulus of 25 mA delivered by an electroshock generator (Hugo Sachs rodent shocker, Germany) to induce maximal seizures (tonic extension) of hind limbs. Electroconvulsions were produced with the use of auricular electrodes and the stimulus duration was 0.2 s. Tonic extension of the hind limbs was regarded as the endpoint for this procedure.

[7] = tested on: C. glabrata; experiment: Broth microdilution MIC/MFC, clinical isolate; format: cell-based; conditions: C. glabrata clinical strain
Excerpt: as §1, §2

[8] = tested on: C. kefyr; experiment: Broth microdilution MIC/MFC, clinical isolate; format: cell-based; conditions: C. kefyr clinical strain
Excerpt: as §1, §2

[9] = tested on: C. pulcherrima; experiment: Broth microdilution MIC/MFC, clinical isolate; format: cell-based; conditions: C. pulcherrima clinical strain
Excerpt: as §1, §2

[10] = tested on: C. lambica; experiment: Broth microdilution MIC/MFC, clinical isolate; format: cell-based; conditions: C. lambica clinical strain
Excerpt: as §1, §2

[11] = read-out: Proliferation of Toxoplasma gondii RH strain ± SD
[12] = Pichia inconspicua, read-out: MFC
[13] = Pichia inconspicua, read-out: MIC
[14] = Candida tropicalis, read-out: MFC
[15] = Candida tropicalis, read-out: MIC
[16] = Candida dubliniensis, read-out: MFC
[17] = Candida dubliniensis, read-out: MIC
[18] = Lodderomyces parapsilosis, read-out: MFC
[19] = Lodderomyces parapsilosis, read-out: MIC
[20] = Nakaseomyces glabratus, read-out: MFC
[21] = Nakaseomyces glabratus, read-out: MIC
[22] = Kluyveromyces marxianus, read-out: MFC
[23] = Kluyveromyces marxianus, read-out: MIC

## Fc1ccc(-c2csc(N/N=C/C3CC3)n2)cc1 [Compound 3a, (E)-2-(2-(Cyclopropylmethylene)hydrazinyl)-4-(4-fluorophenyl)thiazole]
[1]; read-out: IC50 anti-Tg
  IC50: 18.1 µg/mL (≈ 69.2 µM)
[1]; [11]
  activity at 0.98 µg/mL: 95.4 ± 2.41%
  activity at 1.95 µg/mL: 97.9 ± 7.49%
  activity at 3.91 µg/mL: 96.16 ± 0.61%
  activity at 7.81 µg/mL: 84.89 ± 0.78%
  activity at 15.63 µg/mL: 49.2 ± 3.59%
  activity at 20 µg/mL: 45.6 ± 5.64%
  activity at 25 µg/mL: 42.2 ± 0.91%
  activity at 31.25 µg/mL: 28.2 ± 5.7%
[2]; [12]
  MFC: 3.91 µg/mL (≈ 15 µM)
[2]; [13]
  MIC: 1.95 µg/mL (≈ 7.46 µM)
[3]; [14]
  MFC: 1.95 µg/mL (≈ 7.46 µM)
[3]; [15]
  MIC: 0.98 µg/mL (≈ 3.75 µM)
[4]; [16]
  MFC: 3.91 µg/mL (≈ 15 µM)
[4]; [17]
  MIC: 1.95 µg/mL (≈ 7.46 µM)
[5]; [18]
  MFC: 7.81 µg/mL (≈ 29.9 µM)
[5]; [19]
  MIC: 3.91 µg/mL (≈ 15 µM)
[6]; Mus musculus, MES test
  responders at 100 mg/kg: 37.5%

## Brc1ccc(-c2csc(N/N=C/C3CC3)n2)cc1 [Compound 3b, (E)-4-(4-Bromophenyl)-2-(2-(cyclopropylmethylene)hydrazinyl)thiazole]
[1]; [11]
  activity at 0.98 µg/mL: 85.8 ± 10.6%
  activity at 1.95 µg/mL: 99.3 ± 6.08%
  activity at 3.91 µg/mL: 107 ± 10.2%
  activity at 7.81 µg/mL: 111 ± 10.1%
[2]; [12]
  MFC: 3.91 µg/mL (≈ 12.1 µM)
[2]; [13]
  MIC: 0.24 µg/mL (≈ 0.745 µM)
[3]; [14]
  MFC: 0.12 µg/mL (≈ 0.372 µM)
[3]; [15]
  MIC: 0.06 µg/mL (≈ 0.186 µM)
[7]; [20]
  MFC: > 1000 µg/mL
[7]; [21]
  MIC: 62.5 µg/mL (≈ 194 µM)
[4]; [16]
  MFC: 0.06 µg/mL (≈ 0.186 µM)
[4]; [17]
  MIC: 0.06 µg/mL (≈ 0.186 µM)
[5]; [18]
  MFC: 0.12 µg/mL (≈ 0.372 µM)
[5]; [19]
  MIC: 0.12 µg/mL (≈ 0.372 µM)
[8]; [22]
  MFC: > 1000 µg/mL
[8]; [23]
  MIC: 15.6 µg/mL (≈ 48.5 µM)
[6]; Mus musculus, MES test
  responders at 100 mg/kg: 37.5%

## FC(F)(F)c1ccc(-c2csc(N/N=C/C3CC3)n2)cc1 [Compound 3e, (E)-2-(2-(Cyclopropylmethylene)hydrazinyl)-4-(4-(trifluoromethyl)phenyl)thiazole]
[1]; [11]
  activity at 0.98 µg/mL: 94.4 ± 6.92%
  activity at 1.95 µg/mL: 100 ± 2.25%
  activity at 3.91 µg/mL: 110 ± 4.37%
[6]; MES test, 100 mg/kg
  animals with reduced seizures: 63%
[6]; Mus musculus, MES test, 30 mg/kg ip, read-out: X/Y number of mice protected (X) per number of mice tested (Y)
  responders at 30 mg/kg: 0%
[6]; Mus musculus, MES test
  responders at 100 mg/kg: 62.5%
[6]; 30 mg/kg
  anticonvulsant activity in MES test: not active

## [N-]=[N+]=Nc1ccc(-c2csc(N/N=C/C3CC3)n2)cc1 [Compound 3i, (E)-4-(4-Azidophenyl)-2-(2-(cyclopropylmethylene)hydrazinyl)thiazole]
[1]; [11]
  activity at 0.98 µg/mL: 95.3 ± 10.6%
  activity at 1.95 µg/mL: 93.3 ± 4.67%
  activity at 3.91 µg/mL: 105 ± 2.24%
  activity at 7.81 µg/mL: 92.2 ± 3.71%
  activity at 15.63 µg/mL: 98.8 ± 4.29%
[2]; [12]
  MFC: 0.98 µg/mL (≈ 3.45 µM)
[2]; [13]
  MIC: 0.48 µg/mL (≈ 1.69 µM)
[3]; [14]
  MFC: 1.95 µg/mL (≈ 6.86 µM)
[3]; [15]
  MIC: 0.24 µg/mL (≈ 0.844 µM)
[7]; [20]
  MFC: > 1000 µg/mL
[7]; [21]
  MIC: 31.2 µg/mL (≈ 110 µM)
[9]; read-out: MFC
  MFC: > 1000 µg/mL
[9]; read-out: MIC
  MIC: 62.5 µg/mL (≈ 220 µM)
[4]; [16]
  MFC: 0.12 µg/mL (≈ 0.422 µM)
[4]; [17]
  MIC: 0.015 µg/mL (≈ 0.0528 µM)
[5]; [18]
  MFC: 0.98 µg/mL (≈ 3.45 µM)
[5]; [19]
  MIC: 0.24 µg/mL (≈ 0.844 µM)
[8]; [22]
  MFC: > 1000 µg/mL
[8]; [23]
  MIC: 7.81 µg/mL (≈ 27.5 µM)
[6]; Mus musculus, MES test
  responders at 100 mg/kg: 37.5%

## C[C@@H]1[C@H](O)[C@@H](C)/C=C/C=C/CC/C=C/C=C/C=C/C=C/C(O[C@H]2O[C@H](C)[C@@H](O)[C@H](N)[C@@H]2O)CC2O[C@](O)(CC(O)C(O)CCC(O)CC(O)CC(O)CC(=O)O[C@H]1C)CC(O)C2C(=O)O (some centres unmarked) [Nystatin, reference compound]
[2]
  MFC: 0.48 µg/mL (≈ 0.518 µM)
  MFC/MIC: 4
  MIC: 0.12 µg/mL (≈ 0.13 µM)
[10]
  MFC: 0.98 µg/mL (≈ 1.06 µM)
  MFC/MIC: 2
  MIC: 0.48 µg/mL (≈ 0.518 µM)
[3]
  MFC: 0.06 µg/mL (≈ 0.0648 µM)
  MFC/MIC: 4
  MIC: 0.015 µg/mL (≈ 0.0162 µM)
[7]
  MFC: 0.48 µg/mL (≈ 0.518 µM)
  MFC/MIC: 1
  MIC: 0.48 µg/mL (≈ 0.518 µM)
[9]
  MFC: 0.24 µg/mL (≈ 0.259 µM)
  MFC/MIC: 2
  MIC: 0.12 µg/mL (≈ 0.13 µM)
[4]
  MFC: 0.12 µg/mL (≈ 0.13 µM)
  MFC/MIC: 1
  MIC: 0.12 µg/mL (≈ 0.13 µM)
[5]
  MFC: 0.48 µg/mL (≈ 0.518 µM)
  MFC/MIC: 4
  MIC: 0.12 µg/mL (≈ 0.13 µM)
[8]
  MFC: 0.24 µg/mL (≈ 0.259 µM)
  MFC/MIC: 2
  MIC: 0.12 µg/mL (≈ 0.13 µM)
